Several values for one entry are separate records, joined by “and”; a condition that tells them apart may be missing. Identical values can stand only once.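 Step 1: Grow cells in 96-well plates. Step 2: Expose to compound for 48 hours at 5 concentrations. Step 3: Interpolate endpoints linearly; if unreached, use highest concentration. GI50: concentration for 50% inhibition of growth. TGI denotes the concentration required for complete inhibition of growth.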
Key:
Assay in all cases: NCI tumour cell line growth inhibition, 48 h
SK-MEL-2 melanoma = system: SK-MEL-2 melanoma
OVCAR-3 ovarian = system: OVCAR-3 ovarian
DU-145 prostate = system: DU-145 prostate
UACC-257 melanoma = system: UACC-257 melanoma
UO-31 renal = system: UO-31 renal
PC-3 prostate = system: PC-3 prostate
MDA-N = system: MDA-N
KM12 colon = system: KM12 colon
HCC-2998 colon = system: HCC-2998 colon
SF-268 CNS = system: SF-268 CNS

SMILES	TGI (SK-MEL-2 melanoma)	TGI (OVCAR-3 ovarian)	TGI (DU-145 prostate)	TGI (UACC-257 melanoma)	TGI (UO-31 renal)	TGI (PC-3 prostate)	TGI (MDA-N)	TGI (KM12 colon)	TGI (HCC-2998 colon)	TGI (SF-268 CNS)	GI50 (UO-31 renal)	GI50 (SF-268 CNS)
COc1ccc(C#Cn2nnc3ccccc32)cc1	> 100 µM	> 100 µM	> 100 µM	> 100 µM	4.47 µM	> 100 µM	> 100 µM	> 100 µM	82 µM	> 100 µM	–	–
Cc1cccc2c(N)c3cccc(C(=O)NCC[N+](C)(C)Cc4ccc([N+](=O)[O-])s4)c3nc12	> 77.6 µM	49.6 µM	46.8 µM	> 78 µM	> 74.7 µM	30.5 µM	49.9 µM	> 54.3 µM	25.2 µM	36.9 µM	–	–
CC(=O)n1cc(C2CC23N=C(c2ccccc2)OC3=O)c2ccccc21 (configuration not stated)	44.5 µM	53.4 µM	33.2 µM	32.8 µM	30.9 µM	41.5 µM	81.7 µM	48.7 µM	30.8 µM	46.3 µM	–	–
Cn1cccc1-c1ccc(-c2ccc(CO)[se]2)[se]1	> 100 µM	> 100 µM	70.1 µM	–	96.9 µM	> 100 µM	> 100 µM	50.5 µM	> 68.4 µM	> 100 µM	–	–
CC(=O)O[C@H]1CC[C@@]2(C)C(=CC[C@@H]3[C@@H]2CC[C@]2(C)C(=N/O)/C(=C\c4ccccc4)C[C@@H]32)C1	39.2 µM	54.7 µM	> 91 µM	37.3 µM	> 59.2 µM	> 100 µM	99.4 µM	10.6 µM	32 µM	> 80.8 µM	–	–
CCC1(O)CC(OC2CC(N(C)C)C(OC3CC(O)C(OC4OC(C)C(=O)C=C4N)C(C)O3)C(C)O2)c2c(cc3c(c2O)C(=O)c2c(O)cccc2C3=O)C1C(=O)OC (configuration not stated)	0.104 µM and 0.0118 µM	1.18 µM and 0.624 µM	1.7 µM and 1.71 µM	0.553 µM and 0.356 µM	0.96 µM and 0.809 µM	0.333 µM and 1.1 µM	0.207 µM and 0.139 µM	1.13 µM and 1.5 µM	0.0824 µM and 0.0294 µM	2.89 µM and 1.38 µM	0.106 µM	0.0127 µM
C/C=C(\C)C(=O)OC1CC(OC(C)=O)C2(C(=O)OC)COC3C2C1(C)C1C2(C(=O)OC)OCC1(C3O)C1(O)C3CC(C4(O)C=COC4O3)C1(C)O2 (configuration not stated)	> 100 µM	> 100 µM	> 100 µM	> 100 µM	> 100 µM	> 100 µM	> 100 µM	> 100 µM	> 100 µM	> 100 µM	–	–
COc1cc2cc(C(=O)N3CC(COS(C)(=O)=O)c4ccc(NC(=O)OCc5ccccc5)cc43)[nH]c2c(OC)c1OC (configuration not stated)	> 100 µM	> 100 µM	> 100 µM	> 100 µM	> 100 µM	> 100 µM	> 100 µM	> 100 µM	> 100 µM	> 100 µM	–	–
Cc1cc(-n2nnc(C(=O)O)c2-c2ccccc2)c2ccc(Cl)cc2n1	> 100 µM	> 100 µM	> 100 µM	> 100 µM	> 100 µM	> 100 µM	> 100 µM	> 100 µM	> 100 µM	> 100 µM	–	–
C=C(C(=O)O[C@H]1C/C(C)=C/CC/C(CO)=C/[C@H]2C(=O)OC(=C)[C@H]12)C(O)CO (some centres not stated)	29.6 µM	22.8 µM	33.4 µM	24.1 µM	27.6 µM	22.2 µM	25.3 µM	42.3 µM	30.1 µM	39.6 µM	–	–
C[C@@H]1[C@@H](C)C(c2ccccc2)O[Si]1(C(C)(C)C)C(C)(C)C (some centres not stated)	29.3 µM	30.1 µM	31.6 µM	37.5 µM	31 µM	33.1 µM	48.4 µM	30.6 µM	> 55.8 µM	61.2 µM	–	–
ClC(Cl)(Cl)C1CCOC1n1nnc2ccccc21 (configuration not stated)	> 100 µM	> 100 µM	> 100 µM	> 100 µM	–	> 100 µM	> 100 µM	–	> 100 µM	> 100 µM	–	–
O=C(/C(=C(/O)c1ccccc1)c1nc2ccccc2sc1=O)c1ccccc1	76 µM	36.3 µM	> 100 µM	46.2 µM	74.4 µM	> 100 µM	> 100 µM	> 100 µM	59.7 µM	> 100 µM	–	–
COc1cc(/C=C2\CC/C(=C\c3cc(OC)c(O)c(OC)c3)C2=O)cc(OC)c1O	2.02 µM	> 21.8 µM	16.5 µM	> 100 µM	> 26.7 µM	19.7 µM	> 23.4 µM	4.52 µM	3.38 µM	36.5 µM	–	–
O=C1c2cc(Cc3ccccc3)c(=O)c(Cc3ccccc3)cc2C(=O)c2cc(Cc3ccccc3)c(=O)c(Cc3ccccc3)cc21	> 100 µM	> 100 µM	> 100 µM	> 100 µM	> 100 µM	> 100 µM	> 100 µM	> 100 µM	> 100 µM	> 100 µM	–	–
CC1CC[C@@]2(OC1)O[C@H]1[C@H](O)[C@H]3[C@@H]4CC[C@H]5C[C@@H](OC6OC(CO)C(OC7OC(CO)C(O)C(OC8OCC(O)C(O)C8O)C7OC7OC(CO)C(O)C(O)C7OC7OC(CO)C(O)C(O)C7O)C(O)C6O)[C@H](O)C[C@]5(C)[C@H]4CC[C@]3(C)[C@H]1[C@@H]2C (some centres not stated)	> 10 µM	> 10 µM	> 10 µM	> 10 µM	> 10 µM	7.84 µM	> 10 µM	> 10 µM	> 10 µM	> 10 µM	–	–
CCOC(=O)C1CC(C(=O)c2ccccc2)N2c3ccccc3-c3ccccc3C12 (configuration not stated)	> 100 µM	> 100 µM	> 100 µM	> 100 µM	> 100 µM	> 100 µM	> 100 µM	> 100 µM	> 100 µM	> 100 µM	–	–
COC(=O)c1ccccc1C1CN=NC12Cc1c(ccc3c1CCC3)C2=O (configuration not stated)	> 100 µM	> 100 µM	> 100 µM	95.1 µM	> 100 µM	> 100 µM	49.5 µM	> 100 µM	> 100 µM	> 100 µM	–	–
CCCCc1ccc(Nc2ncc3ncn(COCCO)c3n2)cc1	73.1 µM	90.9 µM	> 100 µM	72.5 µM	59.1 µM	> 100 µM	> 100 µM	99.1 µM	40.7 µM	> 100 µM	–	–
O=c1[nH]nc(-c2ccccc2)n1/N=C/c1ccc([N+](=O)[O-])o1	11.6 µM	15.5 µM	17.5 µM	11.9 µM	12.9 µM	> 30.3 µM	12 µM	23.2 µM	12.4 µM	> 28 µM	–	–
CCOC(=O)/C(C(N)=O)=C(\O)C(=O)/C(Br)=C(\O)c1ccccc1	37.4 µM	41.4 µM	39.7 µM	31.8 µM	39.6 µM	31.7 µM	32.2 µM	35.3 µM	36.6 µM	39.5 µM	–	–
COC(=O)C1=C(OC(=O)/C(=C/c2ccccc2)c2ccc(OC)cc2)C(C(=O)OC)[C@@]2(O)[C@@H](C(=O)OC)[C@H](C)C[C@@H]1[C@@H]2C(=O)OC (some centres not stated)	> 100 µM	> 100 µM	> 100 µM	> 100 µM	> 100 µM	> 100 µM	> 100 µM	> 100 µM	> 100 µM	> 100 µM	–	–
N#CC(CCN1CCC(Nc2ccccc2)(c2nnnn2C2CCCCC2)CC1)(c1ccccc1)c1ccccc1	> 100 µM	> 100 µM	> 100 µM	> 100 µM	> 100 µM	> 100 µM	> 100 µM	> 100 µM	> 100 µM	> 100 µM	–	–
CC(C)(C)OC(=O)[C@@H]1CCC(=O)N1C1(c2ccccc2)c2ccccc2-c2ccccc21	> 100 µM	> 100 µM	> 100 µM	> 100 µM	> 100 µM	> 100 µM	96.8 µM	> 100 µM	> 100 µM	> 100 µM	–	–
C#C[C@]1(O)CC[C@H]2[C@@H]3CCC4=C/C(=N/NC(=O)c5cccc6c(=O)c7ccccc7[nH]c56)CCC4[C@H]3CC[C@@]21C (some centres not stated)	> 100 µM	> 100 µM	> 100 µM	> 100 µM	76.5 µM	> 100 µM	> 100 µM	> 100 µM	> 100 µM	> 100 µM	–	–
O=C(O)CSc1ccccc1C(=O)O	> 100 µM	> 100 µM	> 100 µM	34.1 µM	> 100 µM	> 100 µM	> 100 µM	> 100 µM	46.8 µM	> 100 µM	–	–
COC(C/C(=C/CO[Si](C(C)C)(C(C)C)C(C)C)C(=O)N(COCC[Si](C)(C)C)c1ccccc1I)OC	29.9 µM	46 µM	> 100 µM	69.9 µM	> 100 µM	83.6 µM	> 100 µM	> 100 µM	> 100 µM	–	–	–
N#CC1(C#N)C(C#N)(C#N)C1(C#N)C(N)=O	> 100 µM	–	> 100 µM	> 100 µM	> 100 µM	> 100 µM	> 100 µM	> 100 µM	> 100 µM	> 100 µM	–	–

— PubChem BioAssay (NCI)
